According to paper PMC8765437, “GSK3640254 Is a Novel HIV-1 Maturation Inhibitor with an Optimized Virology Profile” (Antimicrobial Agents and Chemotherapy, 2022):

What was measured:
[1] = Human serum protein binding, ultracentrifugation assay; assay type: in vitro ADME
[2] = Cytotoxicity in MT-2 cells (MTS, 4-day incubation); assay type: cell-based; settings: human, read-out: half-maximal cytotoxic concentration (CC50)
Procedure: The assay was performed in a phenol red-free medium at an initial cell density of 10,000 per well in a 96-well plate format. Cell viability was determined using a redox dye assay [3-(4,5-dimethylthiazol-2-yl)-5-(3-carboxymethoxyphenyl)-2-(4-sulfophenyl)-2H-tetrazolium, inner salt (MTS); Promega, Madison, WI] according to the manufacturer’s protocol. Half-maximal cytotoxic concentration values were calculated by fitting to a 4-parameter logistic formula y = A + {[B − A]/1 + [(C/x)^d]}, where A and B are minimal and maximal percent inhibition, respectively, C is the EC50, d is the Hill slope, and x represents compound concentrations.

`C=C(C)[C@@H]1CC[C@]2(NCCN3CCS(=O)(=O)CC3)CC[C@]3(C)[C@H](CC[C@@H]4[C@@]5(C)CC=C(C6=CC[C@@](CF)(C(=O)O)CC6)C(C)(C)[C@@H]5CC[C@]43C)[C@@H]12` [GSK’254] gave a fraction unbound [1] of 0.14 and a CC50 at 4 days [2] of 13 ± 6 µM.
